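Results reflect a 48-hour exposure of cells in 96-well plates to compound at five concentrations. GI50 = concentration required for 50% inhibition of growth. The concentration for full growth arrest is given as TGI.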
Key:
Experiment in all cases: inhibition of tumour cell growth, NCI panel, 48 h
A549 NSCLC = system: A549 NSCLC
DU-145 prostate = system: DU-145 prostate
MDA-MB-231 breast = system: MDA-MB-231 breast
NCI-H460 lung = system: NCI-H460 lung
OVCAR-5 ovarian = system: OVCAR-5 ovarian
OVCAR-8 ovarian = system: OVCAR-8 ovarian
RPMI-8226 leukemia = system: RPMI-8226 leukemia
SW-620 colon = system: SW-620 colon
UO-31 renal = system: UO-31 renal
MALME-3M melanoma = system: MALME-3M melanoma

Compound | GI50 (A549 NSCLC) [µM] | TGI (A549 NSCLC) [µM] | GI50 (DU-145 prostate) [µM] | TGI (DU-145 prostate) [µM] | GI50 (MDA-MB-231 breast) [µM] | TGI (MDA-MB-231 breast) [µM] | GI50 (NCI-H460 lung) [µM] | TGI (NCI-H460 lung) [µM] | GI50 (OVCAR-5 ovarian) [µM] | TGI (OVCAR-5 ovarian) [µM] | GI50 (OVCAR-8 ovarian) [µM] | TGI (OVCAR-8 ovarian) [µM] | GI50 (RPMI-8226 leukemia) [µM] | TGI (RPMI-8226 leukemia) [µM] | GI50 (SW-620 colon) [µM] | TGI (SW-620 colon) [µM] | GI50 (UO-31 renal) [µM] | TGI (UO-31 renal) [µM] | GI50 (MALME-3M melanoma) [µM] | TGI (MALME-3M melanoma) [µM]
Cc1nc2ccccn2c1NC(=O)NNC(=S)Nc1ccc(F)cc1 | > 100 | > 100 | > 100 | > 100 | > 100 | > 100 | > 100 | > 100 | > 100 | > 100 | > 100 | > 100 | > 100 | > 100 | > 100 | > 100 | > 100 | > 100 | – | –
O=c1oc2cc(OC/C(=N/O)c3ccc(F)cc3)ccc2c2ccccc12 | 18.2 | 45.7 | 18.5 | 34.7 | 14.8 | 30.3 | 16.9 | 35.2 | 19.4 | 40 | 22.5 | 43.6 | 31.8 | > 100 | 23.2 | 44.6 | 18.7 | 35.2 | 19.6 | 42.8
Cn1c(-c2ccccc2)c(/C=C/C2=[N+](C)c3ccccc3C2(C)C)c2ccccc21 | 1.73 | 12.8 | 1.87 | 12.7 | 2.18 | 22.8 | 0.58 | 8.24 | 3.96 | 20 | 0.84 | 8.95 | 0.167 | 0.911 | 1.52 | 12.5 | 2.23 | 7.3 | 0.68 | 3.1
Cn1nc(C(F)(F)F)c(-c2cc(C(F)(F)F)cc(C(F)(F)F)c2)c1-c1ccc(OCc2ccc(Cl)cc2)cc1O | 3.18 | 11.7 | 3.9 | 14.8 | 2.15 | 5.69 | 2.16 | 5.5 | 3.29 | 15 | 2.92 | 12.1 | 2.26 | 7.22 | 3 | 11 | 1.89 | 4.28 | 1.99 | 5.24
COc1ccc(NC(=O)c2sc3nc(C)c(C(=O)/C=C/c4cccc(OC)c4)cc3c2N)cc1 | 1.18 | 9.22 | 1.64 | 5.66 | 1.66 | > 50 | 1.07 | 2.45 | 1.62 | 9 | 1.59 | > 50 | 0.989 | 3.08 | 1.26 | 3.79 | 0.842 | 1.76 | 3.85 | 45
COc1ccc(/C=C2\SC(=Nc3ccccc3)NC2=O)cc1 | 4.74 | 26.7 | 11.4 | 71.5 | 4.58 | 38.7 | 3.36 | 13.4 | 12.5 | > 100 | 6.62 | 31.7 | 5.38 | > 100 | 3.38 | 24.4 | 6.97 | > 100 | 19 | 99.8
